Data from patent US11084824B2, “Pyrazolopyrimidine derivatives, preparation method thereof, and pharmaceutical composition for use in preventing or treating cancer, autoimmune disease and brain disease containing the same as an active ingredient” (Korea Research Institute of Chemical Technology, priority 2017, dated 2021).

These compounds were tested on TMD8 cells (assay: TMD8 cell growth inhibition (WST-1, 72 hours)). Settings: Homo sapiens, TMD8 ABC type DLBCL cell line, WST-1, absorbance 450 nm.
Assay type: cell-based
Method: TDM-8 cells, the ABC (activated B-cell) type DLBCL (diffuse large B cell lymphoma) cell line sensitive to BTK signaling, were seeded in a 96-well plate at 30% confluency. Then, the compounds of the invention were treated thereto at different concentrations. 72 hours later, WST-1 reagent was added thereto. One hour later, absorbance was measured at 450 nm by using a spectramax spectrophotometer.

For `Cc1cccc(C)c1Nc1nn(C)c2nc(Nc3ccc4c(c3)C(C)N(C)C(C)(C)C4)ncc12` (stereo not drawn) [Example 67, N3-(2,6-dimethylphenyl)-1-methyl-N 6-(1,2,3,3-tetramethyl-1,2,3,4-tetrahydroisoquinoline-7-yl)-1H-pyrazolo[3,4-d]pyrimidine-3,6-diamine], which IC50 is on record?
The IC50 was 23.6 nM.

Which IC50 does the source give for `COCCOc1cc(C)c(Nc2nn(C)c3nc(Nc4ccc5c(c4)C(C(C)C)NCC5)ncc23)c(C)c1` (stereo not drawn) [Example 78, N6-(1-isopropyl-1,2,3,4-tetrahydroisoquinoline-7-yl)-N 3-(4-(2-methoxyethoxy)-2,6-dimethylphenyl)-1-methyl-1H-pyrazolo[3,4-d]pyrimidine-3,6-diamine] here?
The IC50 was 26.2 nM.

For `Cc1cccc(C)c1Nc1nn(C(C)C)c2nc(Nc3ccc4c(c3)CNCC4)ncc12` [Example 27, N^3 (2,6-dimethylphenyl)-1-isopropyl-N6-(1,2,3,4-tetrahydroisoquinoline-7-yl)-1H-pyrazolo[3,4-d]pyrimidine-3,6-diamine], which IC50 is on record?
Its IC50 is 35.4 nM.

Which IC50 does the source give for `CC(=O)N1Cc2cc(Nc3ncc4c(Nc5c(C)cccc5C)nn(C)c4n3)ccc2CC1(C)C` [Example 71, 1-(7-((3-((2,6-dimethylphenyl)amino)-1-methyl-1H-pyrazolo[3,4-d]pyrimidine-6-yl)amino)-3,3-dimethyl-3,4-dihydroisoquinoline-2(1H)-yl)ethane-1-one] here?
The IC50 was 114 nM.

Which IC50 does the source give for `Cc1cccc(C)c1Nc1nn(C)c2nc(Nc3ccc4c(c3)C(=O)NCC4)ncc12` [Example 77, 7-((3-((2,6-dimethylphenyl)amino)-1-methyl-1H-pyrazolo[3,4-d]pyrimidine-6-yl)amino)-3,4-dihydroisoquinoline-1(2H)-one] here?
Its IC50 is 146 nM.

For `Cn1nc(Nc2c(F)cccc2F)c2cnc(Nc3ccc4c(c3)CNCC4)nc21` [Example 42, N^3-(2,6-difluorophenyl)-1-methyl-N^6-(1,2,3,4-tetrahydroisoquinoline-7-yl)-1H-pyrazolo[3,4-d]pyrimidine-3,6-diamine], which IC50 is on record?
The IC50 was 397 nM.

Which IC50 does the source give for `CC(=O)N1Cc2cc(Nc3ncc4c(Nc5c(C)cccc5C)nn(C)c4n3)ccc2C(C)(C)C1` [Example 68, 1-(7-((3-((2,6-dimethylphenyl)amino)-1-methyl-1H-pyrazolo[3,4-d]pyrimidine-6-yl)amino)-4,4-dimethyl-3,4-dihydroisoquinoline-2(1H)-yl)ethane-1-one] here?
The IC50 was 121 nM.

How did the IC50 turn out when `CC(=O)N1CCc2ccc(Nc3ncc4c(Nc5c(C)cccc5C)nn(C)c4n3)cc2C1C(C)C` (stereo not drawn) [Example 70, 1-(7-((3-((2,6-dimethylphenyl)amino)-1-methyl-1H-pyrazolo[3,4-d]pyrimidine-6-yl)amino)-1-isopropyl-3,4-dihydroisoquinoline-2(1H)-yl) ethane-1-one] was run?
The IC50 was 24.5 nM.

For `C=CC(=O)Nc1ccc(Nc2ncc3c(Nc4c(C)cccc4C)nn(C)c3n2)cc1` [Example 76, N-(4-((3-((2,6-dimethylphenyl)amino)-1-methyl-1H-pyrazolo[3,4-d]pyrimidine-6-yl)amino)phenyl)acrylamide], which IC50 is on record?
The IC50 was 75.2 nM.

How did the IC50 turn out when `COCCOc1cc(C)c(Nc2nn(C)c3nc(Nc4ccc5c(c4)C(C)(C)NCC5)ncc23)c(C)c1` [Example 79, N6-(1,1-dimethyl-1,2,3,4-tetrahydroisoquinoline-7-yl)-N 3-(4-(2-methoxyethoxy)-2,6-dimethylphenyl)-1-methyl-1H-pyrazolo[3,4-d]pyrimidine-3,6-diamine] was run?
The IC50 was 13 nM.

With `Cc1cc(C)c(Cl)c(Nc2nn(C)c3nc(Nc4ccc5c(c4)CNCC5)ncc23)c1` [Example 38, N^3-(2-chloro-3,5-dimethylphenyl)-1-methyl-N^6-(1,2,3,4-tetrahydroisoquinoline-7-yl)-1H-pyrazolo[3,4-d]pyrimidine-3,6-diamine] as the compound, how does the IC50 read?
Its IC50 is 832 nM.

For `Cc1ccc(NC(=O)Nc2cccc(C(F)(F)F)c2)cc1Nc1nn(C)c2nc(Nc3ccc4c(c3)CNCC4)ncc12` [Example 57, 1-(4-methyl-3-((1-methyl-6-((1,2,3,4-tetrahydroisoquinoline-7-yl)amino)-1H-pyrazolo[3,4-d]pyrimidine-3-yl)amino)phenyl)-3-(3-(trifluoromethyl)phenyl)urea], which IC50 is on record?
The IC50 was 221 nM.
